Source: PubChem BioAssay AID1053147 (Broad Institute, 2014)

Test system: HepG2 BODIPY-LDL uptake, imaging, fold induction
Test: LDL uptake enhancers in HepG2, dose response, imaging, BODIPY-LDL, cherry-pick, set 2 (AID 1053147)
Settings: hits give high values

SMILES	fold induction x10
CN1C(=O)c2cc(NC(=O)c3ccc(C(F)(F)F)cc3)ccc2OC[C@@H]2O[C@H](CC(=O)NC3Cc4ccccc4C3)CC[C@@H]21	10
CN1C(=O)c2cc(NC(=O)c3ccc(C(F)(F)F)cc3)ccc2OC[C@@H]2O[C@@H](CC(=O)NC3Cc4ccccc4C3)CC[C@@H]21	25
